Assays:
[1] = target: GDP-bound NRAS wild-type protein (Homo sapiens, UniProt P01111); assay: Binding to NRAS by surface plasmon resonance (SPR), Single Cycle Kinetics; conditions: for NRAS/KRAS (ratio of KD value with respect to GDP-bound NRAS wild-type protein to KD value with respect to KRAS): SPR KD ratio NRAS/KRAS, class symbols
[2] = target: GDP-bound HRAS wild-type protein (Homo sapiens, UniProt P01112); assay: Binding to HRAS by surface plasmon resonance (SPR), Single Cycle Kinetics; conditions: for HRAS/KRAS (ratio of KD value with respect to GDP-bound HRAS wild-type protein to KD value with respect to KRAS): SPR KD ratio HRAS/KRAS, class symbols
Chain of GDP-bound HRAS wild-type protein (P01112 whole entry): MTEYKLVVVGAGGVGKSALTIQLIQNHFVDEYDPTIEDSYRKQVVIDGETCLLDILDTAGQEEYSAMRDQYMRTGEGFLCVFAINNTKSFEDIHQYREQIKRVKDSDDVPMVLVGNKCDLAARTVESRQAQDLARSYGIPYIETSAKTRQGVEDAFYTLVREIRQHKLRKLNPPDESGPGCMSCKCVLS

[3] = SPR, GDP-bound NRAS wild-type protein vs GDP-bound KRAS wild-type protein
[4] = SPR, GDP-bound HRAS wild-type protein vs GDP-bound KRAS wild-type protein

Chain of GDP-bound NRAS wild-type protein (P01111 whole entry): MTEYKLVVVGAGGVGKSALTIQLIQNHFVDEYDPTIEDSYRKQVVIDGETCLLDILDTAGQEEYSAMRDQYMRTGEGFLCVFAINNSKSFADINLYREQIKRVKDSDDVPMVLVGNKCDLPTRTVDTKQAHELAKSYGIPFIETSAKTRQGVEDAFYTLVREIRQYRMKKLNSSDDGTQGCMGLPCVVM

CCC[C@H]1C(=O)N[C@@H]([C@@H](C)CC)C(=O)N(C)CC(=O)N(C)[C@H]2C/C=C\CCN(C2=O)[C@@H](Cc2ccc(C)cc2)C(=O)N(C)CC(=O)N[C@@H](CCc2ccc(C(F)(F)F)c(OC)c2)C(=O)N2CC3(CC3)C[C@H]2C(=O)NC2(CC(C)(C)C2)C(=O)N(C)[C@@H](CC(C)(C)C)C(=O)N(C)[C@H](C(=O)N(C)C)CC(=O)N1C [PP3009]
NRAS/KRAS (ratio of KD value for NRAS to KD value for KRAS) [1, 3]: A (a compound having 10 or more and less than 20 is denoted as A)
HRAS/KRAS (ratio of KD value for HRAS to KD value for KRAS) [2, 4]: A (a compound having 10 or more and less than 20 is denoted as A)

CCC[C@@H]1C[C@H]2C(=O)NC3(CCCC3)C(=O)N(C)[C@@H](C3CCCC3)C(=O)N(C)[C@H](C(=O)N(C)C)CC(=O)N(C)[C@@H](CC)C(=O)N[C@@H]([C@@H](C)CC)C(=O)N(C)CC(=O)N(C)[C@H]3C/C=C\CCN(C3=O)[C@@H](Cc3ccc(C)cc3)C(=O)N(C)CC(=O)N[C@@H](CCc3cc(F)c(C(F)(F)F)c(F)c3)C(=O)N2C1 [PP2227]
NRAS/KRAS (ratio of KD value for NRAS to KD value for KRAS) [1, 3]: A (a compound having 10 or more and less than 20 is denoted as A)
HRAS/KRAS (ratio of KD value for HRAS to KD value for KRAS) [2, 4]: A (a compound having 10 or more and less than 20 is denoted as A)

CCC[C@H]1C(=O)N[C@@H]([C@@H](C)CC)C(=O)N(C2CC2)CC(=O)N(C)[C@H]2C/C=C\CCN(C2=O)[C@@H](Cc2ccc(C(F)(F)F)cc2)C(=O)N(C)CC(=O)N[C@@H](CCc2cc(F)c(C(F)(F)F)c(F)c2)C(=O)N2C[C@H](OCC)C[C@H]2C(=O)NC2(CC(C)(C)C2)C(=O)N(C)[C@@H](CC(C)(C)C)C(=O)N(C)[C@H](C(=O)N(C)C)CC(=O)N1C [PP2742]
NRAS/KRAS (ratio of KD value with respect to GDP-bound NRAS wild-type protein to KD value with respect to KRAS) [1]: AA (a compound having 20 or more is denoted as AA)
HRAS/KRAS (ratio of KD value with respect to GDP-bound HRAS wild-type protein to KD value with respect to KRAS) [2]: A (a compound having 10 or more and less than 20 is denoted as A)

CCO[C@@H]1C[C@H]2C(=O)NC3(CCC3)C(=O)N(C)[C@@H](C3CCCC3)C(=O)N(C)[C@H](C(=O)N3CCOCC3)CC(=O)N(C)[C@@H](CC(C)C)C(=O)N[C@@H]([C@H](C)CC)C(=O)N(C)CC(=O)N(C)[C@H]3CCCCN(C3=O)[C@@H](Cc3ccc(C(F)(F)F)cc3)C(=O)N(C)CC(=O)N[C@@H](CCc3cc(F)c(C(F)(F)F)c(F)c3)C(=O)N2C1 [PP0806]
NRAS/KRAS (ratio of KD value with respect to NRAS to KD value with respect to KRAS) [1, 3]: B (a compound having 3 or more and less than 10 is denoted as B)
HRAS/KRAS (ratio of KD value with respect to HRAS to KD value with respect to KRAS) [2, 4]: B (a compound having 3 or more and less than 10 is denoted as B)

CCC[C@H]1C(=O)N[C@@H]([C@@H](C)CC)C(=O)N(C)CC(=O)N(C)[C@H]2C/C=C\CCN(C2=O)[C@@H](Cc2ccc(C(F)(F)F)cc2)C(=O)N(C)CC(=O)N[C@@H](CCc2ccc(C(F)(F)F)c(C3CC3)c2)C(=O)N2C[C@H](OCC)C[C@H]2C(=O)NC2(CC(C)(C)C2)C(=O)N(C)[C@@H](C2CCCC2)C(=O)N(C)[C@H](C(=O)N(C)C)CC(=O)N1C [PP2852]
NRAS/KRAS (ratio of KD value with respect to GDP-bound NRAS wild-type protein to KD value with respect to KRAS) [1]: B (a compound having 3 or more and less than 10 is denoted as B)
HRAS/KRAS (ratio of KD value with respect to GDP-bound HRAS wild-type protein to KD value with respect to KRAS) [2]: B (a compound having 3 or more and less than 10 is denoted as B)

CCC[C@H]1C(=O)N[C@@H]([C@@H](C)CC)C(=O)N(C)CC(=O)N(C)[C@H]2C/C=C\CCN(C2=O)[C@@H](Cc2ccc(C(F)(F)F)cc2)C(=O)N(C)CC(=O)N[C@@H](CCc2ccc(CC)c(F)c2)C(=O)N2C[C@H](OCC)C[C@H]2C(=O)NC2(CC(C)(C)C2)C(=O)N(C)[C@@H](C2CCCC2)C(=O)N(C)[C@H](C(=O)N(C)C)CC(=O)N1C [PP2856]
NRAS/KRAS (ratio of KD value with respect to GDP-bound NRAS wild-type protein to KD value with respect to KRAS) [1]: A (a compound having 10 or more and less than 20 is denoted as A)
HRAS/KRAS (ratio of KD value with respect to GDP-bound HRAS wild-type protein to KD value with respect to KRAS) [2]: A (a compound having 10 or more and less than 20 is denoted as A)

CCO[C@@H]1C[C@H]2C(=O)NC3(CC(C)(C)C3)C(=O)N(C)[C@@H](C(CC)CC)C(=O)N(C)[C@H](C(=O)N(C)C)CC(=O)N(C)[C@@H](C(C)C)C(=O)N[C@@H]([C@@H](C)CC)C(=O)N(C)CC(=O)N(C)[C@H]3C/C=C\CCN(C3=O)[C@@H](Cc3ccc(C)cc3)C(=O)N(C)CC(=O)N[C@@H](CCc3cc(F)c(C(F)(F)F)c(F)c3)C(=O)N2C1 [PP2153]
NRAS/KRAS (ratio of KD value for NRAS to KD value for KRAS) [1, 3]: A (a compound having 10 or more and less than 20 is denoted as A)
HRAS/KRAS (ratio of KD value for HRAS to KD value for KRAS) [2, 4]: A (a compound having 10 or more and less than 20 is denoted as A)

CCO[C@@H]1C[C@H]2C(=O)NC3(CCC3)C(=O)N(C)[C@@H](C3CCCC3)C(=O)N(C)[C@H](C)CC(=O)N(C)[C@@H](CC(C)C)C(=O)N[C@@H]([C@@H](C)CC)C(=O)N(C)CC(=O)N(C)[C@H]3C/C=C\CCN(C3=O)[C@@H](Cc3ccc(F)cc3)C(=O)N(C)CC(=O)N[C@@H](CCc3cc(F)c(C(F)(F)F)c(F)c3)C(=O)N2C1 [PP1494]
NRAS/KRAS (ratio of KD value for NRAS to KD value for KRAS) ([1]; SPR, GDP-bound NRAS wild-type protein vs GDP-bound KRAS wild-type protein, KD ratio class): B (a compound having 3 or more and less than 10 is denoted as B)
HRAS/KRAS (ratio of KD value for HRAS to KD value for KRAS) ([2]; SPR, GDP-bound HRAS wild-type protein vs GDP-bound KRAS wild-type protein, KD ratio class): B (a compound having 3 or more and less than 10 is denoted as B)

CCOC[C@H]1C(=O)N[C@@H]([C@@H](C)CC)C(=O)N(C)CC(=O)N(C)[C@H]2C/C=C\CCN(C2=O)[C@@H](Cc2ccc(C(C)=O)cc2)C(=O)N(C)CC(=O)N[C@@H](CCc2ccc(C(F)(F)F)c(OC)c2)C(=O)N2C[C@@H](C)C[C@H]2C(=O)NC2(CC(C)(C)C2)C(=O)N(C)[C@@H](C2CCCC2)C(=O)N(C)[C@H](C(=O)N(C)CC)CC(=O)N1C [PP2703]
NRAS/KRAS (ratio of KD value with respect to GDP-bound NRAS wild-type protein to KD value with respect to KRAS) [1]: AA (a compound having 20 or more is denoted as AA)
HRAS/KRAS (ratio of KD value with respect to GDP-bound HRAS wild-type protein to KD value with respect to KRAS) [2]: A (a compound having 10 or more and less than 20 is denoted as A)

CCC[C@H]1C(=O)N[C@@H]([C@@H](C)CC)C(=O)N(C)CC(=O)N(C)[C@H]2C/C=C\CCN(C2=O)[C@@H](Cc2ccc(C)cc2)C(=O)N(C)CC(=O)N[C@@H](CCc2ccc(C(F)(F)F)c(Cl)c2)C(=O)N2C[C@H](C)C[C@H]2C(=O)NC2(CC(C)(C)C2)C(=O)N(C)[C@@H](C2CCCC2)C(=O)N(C)[C@H](C(=O)N(C)C)CC(=O)N1C [PP2210]
NRAS/KRAS (ratio of KD value for NRAS to KD value for KRAS) [1, 3]: A (a compound having 10 or more and less than 20 is denoted as A)
HRAS/KRAS (ratio of KD value for HRAS to KD value for KRAS) [2, 4]: B (a compound having 3 or more and less than 10 is denoted as B)

CCCN(C)C(=O)[C@@H]1CC(=O)N(C)[C@@H](C2CC2)C(=O)N[C@@H]([C@@H](C)CC)C(=O)N(C)CC(=O)N(C)[C@H]2C/C=C\CCN(C2=O)[C@@H](Cc2ccc(C(F)(F)F)cc2)C(=O)N(C)CC(=O)N[C@@H](CCc2cc(F)c(C(F)(F)F)c(F)c2)C(=O)N2C[C@H](OCC)C[C@H]2C(=O)NC2(CC(C)(C)C2)C(=O)N(C)[C@@H](C2CCCC2)C(=O)N1C [PP2037]
NRAS/KRAS (ratio of KD value for NRAS to KD value for KRAS) [1, 3]: A (a compound having 10 or more and less than 20 is denoted as A)
HRAS/KRAS (ratio of KD value for HRAS to KD value for KRAS) [2, 4]: A (a compound having 10 or more and less than 20 is denoted as A)

CCO[C@@H]1C[C@H]2C(=O)NC3(CCC3)C(=O)N(C)[C@@H](C3CCCC3)C(=O)N(C)[C@H](C(=O)N(C)C)CC(=O)N(C)[C@@H](CC)C(=O)N[C@@H]([C@@H](C)CC)C(=O)N3CCCC[C@H]3C(=O)N(C)[C@H]3C/C=C\CCN(C3=O)[C@@H](Cc3ccc(C(F)(F)F)cc3)C(=O)N(C)CC(=O)N[C@@H](CCc3cc(F)c(C(F)(F)F)c(F)c3)C(=O)N2C1 [PP1058]
NRAS/KRAS (ratio of KD value for NRAS to KD value for KRAS) [1, 3]: A (a compound having 10 or more and less than 20 is denoted as A)
HRAS/KRAS (ratio of KD value for HRAS to KD value for KRAS) [2, 4]: B (a compound having 3 or more and less than 10 is denoted as B)

C=CCN1CC(=O)N(C)[C@H]2C/C=C\CCN(C2=O)[C@@H](Cc2ccc(C)cc2)C(=O)N(C)CC(=O)N[C@@H](CCc2ccc(C(F)(F)F)c(OC)c2)C(=O)N2C[C@H](OCC)C[C@H]2C(=O)NC2(CC(C)(C)C2)C(=O)N(C)[C@@H](C2CCCC2)C(=O)N(C)[C@H](C(=O)N(C)C)CC(=O)N(C)[C@@H](CC(C)C)C(=O)N[C@@H]([C@@H](C)CC)C1=O [PP2058]
NRAS/KRAS (ratio of KD value for NRAS to KD value for KRAS) [1, 3]: A (a compound having 10 or more and less than 20 is denoted as A)
HRAS/KRAS (ratio of KD value for HRAS to KD value for KRAS) [2, 4]: A (a compound having 10 or more and less than 20 is denoted as A)

CCCO[C@@H]1C[C@H]2C(=O)N(C)C3(CC(C)(C)C3)C(=O)N(C)[C@@H](C(CC)CC)C(=O)N(C)[C@H](C(=O)N(C)C)CC(=O)N(C)[C@@H](COC)C(=O)N[C@@H]([C@@H](C)CC)C(=O)N(C)CC(=O)N(C)[C@H]3C/C=C\CCN(C3=O)[C@@H](Cc3ccc(C)cc3)C(=O)N(C)CC(=O)N[C@@H](CCc3ccc(Cl)c(Cl)c3)C(=O)N2C1 [PP2812]
NRAS/KRAS (ratio of KD value with respect to GDP-bound NRAS wild-type protein to KD value with respect to KRAS) [1]: AA (a compound having 20 or more is denoted as AA)
HRAS/KRAS (ratio of KD value with respect to GDP-bound HRAS wild-type protein to KD value with respect to KRAS) [2]: A (a compound having 10 or more and less than 20 is denoted as A)

CCO[C@@H]1C[C@H]2C(=O)NC3(CCC3)C(=O)N(C)[C@@H](C3CCCC3)C(=O)N(C)[C@H](C(=O)N3CCOCC3)CC(=O)N(C)[C@@H](CC(C)C)C(=O)N[C@@H]([C@@H](C)CC)C(=O)N(C)CC(=O)N(C)[C@H]3CCCCCN(C3=O)[C@@H](Cc3ccc(F)cc3)C(=O)N(C)CC(=O)N[C@@H](CCc3ccc(C(F)(F)F)c(Cl)c3)C(=O)N2C1 [PP0968]
NRAS/KRAS (ratio of KD value for NRAS to KD value for KRAS) [1, 3]: B (a compound having 3 or more and less than 10 is denoted as B)
HRAS/KRAS (ratio of KD value for HRAS to KD value for KRAS) [2, 4]: B (a compound having 3 or more and less than 10 is denoted as B)
